Experimental data taken from US12291529B2, “Heterocyclic GLP-1 agonists” (Gasherbrum Bio, Inc., priority 2023, dated 2025).

Molecular target: GLP-1 Receptor (Homo sapiens, UniProt P43220)
Assay: GLP-1R agonist cAMP stimulation assay (HEK293/GLP1R/CRE-LUC cells, Cisbio cAMP dynamic 2 kit)
Assay type: cell-based
Details: Table 3, HEK293/GLP1R/CRE-LUC cells, 30 min
Protocol: Activation of GLP-1 receptor is known to stimulate cyclic AMP (cAMP) production in cells which indicates primary coupling to the G as subunit of the G protein heterotrimeric complex.
To optimize functional activity directed toward G as coupling, a HEK293/CRE-Luc cell line developed by HDB stably expressing the GLP-1 Receptor was used. 200× concentration of compound working solutions were prepared (Agilent Technologies Bravo) with ½ log serial dilution in 384-well Echo LDV plate (Labcyte, CatOLP-0200). 50 nL/well 200× concentration of compound working solutions were moved to 384-well white low volume plate (Greiner, Cat4784075) using Labcyte ECH0550.1×10^5 cells/mL HEK293/GLP1R/CRE-LUC (HD Biosciences) cell suspensions prepared with assay buffer (DPBS containing 0.5 mM IBMX (Sigma, Cat15879) and 0.10 BSA (GENVIEW, Cat4FA016-100g)), 10 uL cell suspensions were added to each well of previous generated assay plate which already contains 50 n^1 compound at 200 xconcentration using ThermioFisher Multidrop Combi (1000 cells/well). Seal the plate and incubate at 37 with […] for 30 m.
After incubation the cAMP assay signal was generated using cAMP dynamic 2 Kit (Cisbio). 5 μL cAMP-d2 working solution was added to each well, followed with 5 L Anti-cAMP antibody-cryptate working solution added to each well using ThermoFisher Multidrop Combi. Incubate at room temperature for 1 hour protected from light. Read the fluorescence at 665 and 615 nm with Reader PerkinElmer EnVision. % oActivity=100%×(mean RLU of test sample−mean RLU of vehicle control)/(mean RLU of MAX control−mean RLU of vehicle control)

Sequence of GLP-1 Receptor (P43220 24-463, species assumed): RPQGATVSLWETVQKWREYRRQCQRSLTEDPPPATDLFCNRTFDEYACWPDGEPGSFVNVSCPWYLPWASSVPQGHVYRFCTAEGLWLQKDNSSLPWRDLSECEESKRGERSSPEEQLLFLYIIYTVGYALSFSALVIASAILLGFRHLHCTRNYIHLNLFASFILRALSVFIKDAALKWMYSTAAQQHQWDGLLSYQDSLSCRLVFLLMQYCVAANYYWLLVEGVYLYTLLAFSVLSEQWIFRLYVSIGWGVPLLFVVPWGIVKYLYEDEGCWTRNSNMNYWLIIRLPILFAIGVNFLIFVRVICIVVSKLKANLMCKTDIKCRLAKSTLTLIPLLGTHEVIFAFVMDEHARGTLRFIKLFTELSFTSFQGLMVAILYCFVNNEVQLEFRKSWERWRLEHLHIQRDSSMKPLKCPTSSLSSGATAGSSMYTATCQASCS

| EC50 [nM] | Compound |
| --- | --- |
| 0.037 | Cc1cc(-n2nc3c(c2-n2ccn(-c4ccc(S5(=O)=NCCC5)cc4)c2=O)[C@H](C)N(C(=O)c2cc4cc(C5CCOCC5)ccc4n2C2(c4nnn[nH]4)CC2)CC3)cc(C)c1F (single isomer, unassigned) [Compound 172] |
| 0.02 | CC1=Cc2cc(-n3ccn(-c4c5c(nn4-c4cc(C)c(F)c(C)c4)CCN(C(=O)c4cc6cc([C@H]7CCOC(C)(C)C7)ccc6n4[C@@]4(c6noc(=O)[nH]6)C[C@@H]4C)[C@H]5C)c3=O)ccc2S(C)(=O)=N1 (single isomer, unassigned) [Compound 206] |
| 1.5 | Cc1nnc(C2(n3c(C(=O)N4CCc5nn(-c6cc(C)c(F)c(C)c6)c(-n6ccn(-c7ccc(S8(=O)=NCCC8)cc7)c6=O)c5[C@@H]4C)cc4cc(C5CCOCC5)ccc43)CC2)o1 (single isomer, unassigned) [Compound 156] |
| 0.0051 | Cc1cc(-n2nc3c(c2-n2ccn(-c4ccc(S(=N)(=O)C5CC5)cc4)c2=O)[C@H](C)N(C(=O)c2cc4cc(C5CCOCC5)ccc4n2[C@@]2(c4noc(=O)[nH]4)C[C@@H]2C)CC3)cc(C)c1F (single isomer, unassigned) [Compound 134] |
| 0.009 | CNc1cc(-n2ccn(-c3c4c(nn3-c3cc(C)c(F)c(C)c3)CCN(C(=O)c3cc5cc(C6CCOCC6)ccc5n3[C@@]3(c5nc(=O)o[nH]5)C[C@@H]3C)[C@H]4C)c2=O)ccc1S(C)(=N)=O (stereo partly drawn) [Compound 105, 3-[(1S,2S)-1-(2-{[(S)-2-(4-fluoro-3,5-xylyl)-3-{3-[4-(iminomethyloxothio)-3-(methylamino)phenyl]-2-oxo-1,3-dihydro-1-imidazolyl}-4-methyl-4,5,6,7-tetrahydro-2H-1,2,5-triazainden-5-yl]carbonyl}-5-(tetrahydro-2H-pyran-4-yl)-1-indolyl)-2-methylcyclopropyl]-1,2,4-oxadiazol-5(4H)-one] |
| 0.014 | Cc1cc(-n2nc3c(c2-n2ccn(-c4ccc5c(c4)C=CS(C)(=O)=N5)c2=O)[C@H](C)N(C(=O)c2cc4cc([C@H]5CCOC(C)(C)C5)ccc4n2[C@@]2(c4noc(=O)[nH]4)C[C@@H]2C)CC3)cc(C)c1F (single isomer, unassigned) [Compound 231] |
| 0.032 | CN=S(=O)(c1ccc(-n2ccn(-c3c4c(nn3-c3cc(C)c(Cl)c(C)c3)CCN(C(=O)c3cc5cc([C@H]6CCOC(C)(C)C6)ccc5n3[C@@]3(c5noc(=O)[nH]5)C[C@@H]3C)[C@H]4C)c2=O)c(F)c1)C1CC1 (single isomer, unassigned) [Compound 203] |
| 0.15 | CCS(=N)(=O)c1ccc(-n2ccn(-c3c4c(nn3-c3cc(C)c(F)c(C)c3)CCN(C(=O)c3cc5cc(C6CCOCC6)ccc5n3[C@@]3(c5noc(=O)[nH]5)C[C@@H]3C)[C@H]4C)c2=O)c(Cl)c1 (single isomer, unassigned) [Compound 137] |
| 0.01 | Cc1cc(-n2nc3c(c2-n2ccn(-c4cc5c(cc4F)S(C)(=O)=NC5)c2=O)[C@H](C)N(C(=O)c2cc4cc([C@H]5CCOC(C)(C)C5)ccc4n2[C@@]2(c4noc(=O)[nH]4)C[C@@H]2C)CC3)cc(C)c1F (single isomer, unassigned) [Compound 199] |
| 0.14 | Cc1cc(-n2nc3c(c2N2CCN(c4ccc(S(C)(=N)=O)cc4)C2=O)[C@H](C)N(C(=O)c2cc4cc(C5CCOCC5)ccc4n2[C@@]2(c4noc(=O)[nH]4)C[C@@H]2C)CC3)cc(C)c1F (stereo partly drawn) [Compound 103, 3-[(1S,2S)-1-(2-{[(4S)-3-(3-{4-[azanylidene(methyl)(oxo)-λ^6-sulfanyl]phenyl}-2-oxotetrahydro-1H-imidazol-1-yl)-2-(4-fluoro-3,5-dimethylphenyl)-4-methyl-4,5,6,7-tetrahydropyrazolo[4,3-c]pyridin-5-yl]carbonyl}-5-(3,4,5,6-tetrahydro-2H-pyran-4-yl)indol-1-yl)-2-methylcyclopropyl]-4H,5H-1,2,4-oxadiazol-5-one] |
| 0.067 | CC1=Cc2c(ccc(-n3ccn(-c4c5c(nn4-c4cc(C)c(F)c(C)c4)CCN(C(=O)c4cc6cc([C@H]7CCOC(C)(C)C7)ccc6n4[C@@]4(c6noc(=O)[nH]6)C[C@@H]4C)[C@H]5C)c3=O)c2F)S(=O)(C2CC2)=N1 (single isomer, unassigned) [Compound 210] |
| 0.028 | Cc1cc(-n2nc3c(c2-n2ccn(-c4ccc(S(C)(=N)=O)cc4)c2=O)[C@H](C)N(C(=O)c2cc4cc(C5CCOCC5)ccc4n2[C@@]2(c4noc(=O)[nH]4)C[C@@H]2C)CC3)cc(C)c1F (some centres unmarked) [Compound 110] |
| 0.022 | CCS(=N)(=O)c1ccc(-n2ccn(-c3c4c(nn3-c3cc(C)c(F)c(C)c3)CCN(C(=O)c3cc5cc(C6CCOCC6)ccc5n3[C@@]3(c5noc(=O)[nH]5)C[C@@H]3C)[C@H]4C)c2=O)cn1 (single isomer, unassigned) [Compound 141] |
| 0.026 | Cc1cc(-n2nc3c(c2-n2ccn(-c4ccc(C5(S(C)(=N)=O)CC5)cc4)c2=O)[C@H](C)N(C(=O)c2cc4cc(C5CCOCC5)ccc4n2[C@@]2(c4noc(=O)[nH]4)C[C@@H]2C)CC3)cc(C)c1F (single isomer, unassigned) [Compound 177] |
| 8.8 | CCS(=O)(=NC)c1ccc(-n2ccn(-c3c4c(nn3-c3cc(C)c(F)c(C)c3)CCN(C(=O)c3cc5cc(C6CCOCC6)ccc5n3Cc3ccc(C)nc3)[C@H]4C)c2=O)c(F)c1 (single isomer, unassigned) [Compound 171] |
| 0.025 | Cc1cc(-n2nc3c(c2-n2ccn(-c4ccc(CS(C)(=N)=O)cc4F)c2=O)[C@H](C)N(C(=O)c2cc4cc(C5CCOCC5)ccc4n2[C@@]2(c4noc(=O)[nH]4)C[C@@H]2C)CC3)cc(C)c1F (single isomer, unassigned) [Compound 175] |
| 0.062 | CCS(=N)(=O)c1ccc(-n2ccn(-c3c4c(nn3-c3cc(C)c(F)c(C)c3)CCN(C(=O)c3cc5cc(C6CCOCC6)ccc5n3[C@@]3(c5noc(=O)[nH]5)C[C@@H]3C)[C@H]4C)c2=O)c(F)c1 (single isomer, unassigned) [Compound 139] |
| 0.013 | Cc1cc(-n2nc3c(c2-n2ccn(-c4ccc5c(c4)CCN=S5(C)=O)c2=O)[C@H](C)N(C(=O)c2cc4cc(C5CCOCC5)ccc4n2[C@@]2(c4noc(=O)[nH]4)C[C@@H]2C)CC3)cc(C)c1F (stereo partly drawn) [Compound 108, 6-{3-[(4S)-2-(4-fluoro-3,5-dimethylphenyl)-5-({1-[(1S,2S)-2-methyl-1-(5-oxo-4H-1,2,4-oxadiazol-3-yl)cyclopropyl]-5-(3,4,5,6-tetrahydro-2H-pyran-4-yl)indol-2-yl}carbonyl)-4-methyl-4,5,6,7-tetrahydropyrazolo[4,3-c]pyridin-3-yl]-2-oxoimidazol-1-yl}-1-methyl-3,4-dihydro-1λ^6-benzo[2,1-e][1,2]thiazin-1-one] |
| 0.05 | Cc1cc(-n2nc3c(c2-n2ccn(-c4ccc(S5(=O)=NCCC5)cc4)c2=O)[C@H](C)N(C(=O)c2cc4cc(C5CCOCC5)ccc4n2C2(c4nsc(=O)[nH]4)CC2)CC3)cc(C)c1F (single isomer, unassigned) [Compound 131] |
| 0.1 | CN=S(=O)(c1cc(F)c(-n2ccn(-c3c4c(nn3-c3cc(C)c(F)c(C)c3)CCN(C(=O)c3cc5cc([C@H]6CCOC(C)(C)C6)ccc5n3[C@@]3(c5noc(=O)[nH]5)C[C@@H]3C)[C@H]4C)c2=O)cc1C)C1CC1 (single isomer, unassigned) [Compound 193] |
| 0.042 | Cc1cc(-n2nc3c(c2-n2ccn(-c4ccc5c(c4)CCS(C)(=O)=N5)c2=O)[C@H](C)N(C(=O)c2cc4cc([C@H]5CCOC(C)(C)C5)ccc4n2[C@@]2(c4noc(=O)[nH]4)C[C@@H]2C)CC3)cc(C)c1F (single isomer, unassigned) [Compound 229] |
| 0.01 | Cc1cc(-n2ccn(-c3c4c(nn3-c3cc(C)c(F)c(C)c3)CCN(C(=O)c3cc5cc(C6CCOCC6)ccc5n3[C@@]3(c5noc(=O)[nH]5)C[C@@H]3C)[C@H]4C)c2=O)ccc1S(C)(=N)=O (some centres unmarked) [Compound 124] |
| 0.094 | Cc1cc(-n2nc3c(c2-n2ccn(-c4ccc(S(=N)(=O)CC5CC5)cc4F)c2=O)[C@H](C)N(C(=O)c2cc4cc(C5CCOCC5)ccc4n2[C@@]2(c4noc(=O)[nH]4)C[C@@H]2C)CC3)cc(C)c1F (single isomer, unassigned) [Compound 178] |
| 0.039 | CN=S(=O)(c1ccc(-n2ccn(-c3c4c(nn3-c3cc(C)c(F)c(C)c3)CCN(C(=O)c3cc5cc([C@H]6CCOC(C)(C)C6)ccc5n3[C@@]3(c5noc(=O)[nH]5)C[C@@H]3C)[C@H]4C)c2=O)c(Cl)c1)C1CC1 (single isomer, unassigned) [Compound 204] |
| 0.024 | Cc1cc(-n2nc3c(c2-n2ccn(-c4ccc(C5(S(C)(=N)=O)CC5)cc4)c2=O)[C@H](C)N(C(=O)c2cc4cc(C5CCOCC5)ccc4n2[C@@]2(c4noc(=O)[nH]4)C[C@@H]2C)CC3)cc(C)c1F (single isomer, unassigned) [Compound 176] |
| 0.12 | Cc1cc(-n2nc3c(c2-n2ccn(-c4ccc5c(c4)CCCN=S5(=O)C4CC4)c2=O)[C@H](C)N(C(=O)c2cc4cc([C@H]5CCOC(C)(C)C5)ccc4n2[C@@]2(c4noc(=O)[nH]4)C[C@@H]2C)CC3)cc(C)c1F (single isomer, unassigned) [Compound 213] |
